Measured values published in patent US20220025336A1, “METHOD FOR PRODUCING INSULIN-PRODUCING CELLS, AND COMPOSITION” (KATAOKA CORPORATION, priority 2018, published 2022).

Experiments:
human fibroblasts = assay: Direct induction from human fibroblasts into insulin-producing cells; amount of insulin secreted; assay type: cell-based
Text: (§1) The insulin-producing cell produced by the present invention process can be detected, identified, and isolated using, for example, a morphological change of a cell, a characteristic property of an insulin-producing cell, or a specific marker (e.g., an anti-insulin antibody). Moreover, the secretory capacity of the obtained insulin-producing cell can also be evaluated by quantifying the amount of secreted insulin using sandwich ELISA.
The human fibroblasts used as the material were purchased from DS Pharma Biomedical Co., Ltd. The fibroblasts are derived from human skin.
Human fibroblasts were seeded in 35-mm dishes coated with gelatin (Cat#: 190-15805, manufactured by Wako Pure Chemical Industries, Ltd.) at 5×10^4 cells/dish, and cultured in DMEM medium (manufactured by Gibco) supplemented with 10% fetal bovine serum (FBS), 100 U/mL penicillin, and 100 μg/mL streptomycin until confluent under conditions of 37° C. and 5% CO2. Note that DMEM refers to Dulbecco's Modified Eagle's Medium.
The medium of dishes of the human fibroblasts described above was replaced with the differentiation induction medium described below.
Differentiation induction medium: Advanced DMEM/F-12 (Cat#: 12634010; manufactured by Gibco) supplemented with ITS-X (Cat#: 51500056, manufactured by Gibco), non-essential amino acids (NEAA; Cat#: 11140050, manufactured by Gibco), Glutamine (manufactured by Gibco; final concentration: 2 mmol/L), Nicotinamide (Cat#: 72340-10OG, manufactured by Sigma-Aldrich; final concentration: 10 mmol/L), Exendin-4 (Cat#: av120214, manufactured by Abcam; final concentration: 100 ng/mL), 100 U/mL penicillin, 100 μg/mL streptomycin, insulin, and low molecular weight compounds described below, with or without addition of 10% fetal bovine serum (FBS, manufactured by Hyclone).
Subsequently, the cells were cultured under conditions of 37° C. and 5% CO2 while the medium was changed to the medium of the same composition every three days. […]

[1] = tested on: human adipose tissue-derived mesenchymal stem cells (AdMSC); assay: Direct induction from human adipose tissue-derived mesenchymal stem cells (AdMSC) into insulin-producing cells; amount of insulin secreted; assay type: cell-based; conditions: FIG. 5; 120 μg/mL insulin; cultured 14 days
Text: as §1
Human mesenchymal stem cells isolated from adipose tissue were purchased from Takara Bio Co., Ltd.
Human mesenchymal stem cells were seeded in 35-mm dishes coated with gelatin (Cat#: 190-15805, manufactured by Wako Pure Chemical Industries, Ltd.) at 5×10^4 cells/dish, and cultured in Mesenchymal Stem Cell Growth Medium 2 (Cat#: C-28009; manufactured by Takara Bio Co., Ltd.) supplemented with 100 U/mL penicillin and 100 μg/mL streptomycin until the cells were almost confluent under conditions of 37° C. and 5% CO2.
The medium of dishes of the human mesenchymal stem cells described above was replaced with the differentiation induction medium described below. […]

Compound	insulin secretion / secretory capacity of induced cells by combination of low molecular weight compounds (human fibroblasts; FIG. 4, 3C (CHIR99021, BRD7389, forskolin) without BRD7389, or with BI-D1870 5 μM or 10 μM instead of BRD7389, no LY294002, 14 days)	amount of insulin secreted with a high concentration of insulin in the differentiation induction medium [1]	increase of the amount of insulin secretion by induction with a high concentration of insulin (human fibroblasts; FIG. 2, 120 μg/mL vs 20 μg/mL insulin in differentiation induction medium, cultured 14 days)	amount of insulin secreted as a function of insulin concentration in the differentiation induction medium (human fibroblasts; FIG. 3, insulin up to 100 μg/mL, cultured 14 days)
CC(C)CCN1c2nc(Nc3cc(F)c(O)c(F)c3)ncc2N(C)C(=O)C1C (stereo not shown) [BI-D1870, reference compound]	insulin-producing cells with a higher secretory capacity were also obtained	–	–	–
insulin: Human recombinant insulin (Cat#: 093-06351; Wako) added to the differentiation induction medium	–	increased markedly	about 3 times	the greater was the amount of insulin secreted
